From patent publication US7259262B2, “Arylazole derivatives, their manufacture and use as pharmaceutical agents” (Hoffmann-La Roche Inc., priority 2003, dated 2007)

Experiments:
[1] = tested on: A549 cells (human lung carcinoma cell line); assay: A549 cell proliferation MTT assay; format: cell-based; conditions: 120 h, 5 days incubation, MTT readout at 550 nm
Description: A549 cells (human lung carcinoma cell line) were cultivated in RPMI 1640, 2.5% FCS, 2 mM glutamine, 100 u/ml Penicillin, 100 μg/ml Streptomycin. For the assay the cells were seeded in 384 well plates, 900 cells per well, in the same medium. The next day compounds (dissolved 10 mM in DMSO) were added in various concentrations ranging from 3 μM to 0.15 nM (10 concentrations, 1:3 diluted). After 5 days the MTT assay was done mainly according to the instructions of the manufacturer (Cell proliferation kit I, MTT, from Roche Molecular Biochemicals). In brief, MTT labeling reagent was added to a final concentration of 0.5 mg/ml, added and incubated for 4 hrs at 37 C, 5% CO2. During this incubation time purple formazan crystals are formed. After addition of the solubilization solution (20% SDS in 0.02 M HCl) the plates were incubated overnight at 37° C., 5% CO2.
After careful mixing the plates were measured in Victor 2 (scanning multiwell spectrophotometer, Wallac) at 550 nm.
A decrease in number of living cells results in a decrease in the total metabolic activity in the sample. The decrease directly correlates to the amount of purple color resulting from the solubilization of the purple formazan crystals.
A549: 900 cells in 60 μl per well of 384 well plate (Greiner) • Medium: RPMI 1640, 2.5% FCS, glutamine, pen/strep. • Incubate 1 day at 37° C.
Induction: • Dilution of compound in DMSO: 3 μl 10 mM+27 μl DMSO, dilute 1:3 • Add 2 μl of compound dilution row to 95 μl of medium • Add 10 μl of compound dilution to 60 μl medium in test plate ? 0.3% DMSO per well • Incubate 120 h (5 days) at 37° C., 5% CO2
Analysis: • Add 7 μl MTT (5 mg/ml/well), incubate 4 h at 37° C. • Add 30 μl lysis buffer (20% SDS, 0.04 N HCl) per well • Incubate overnight at 37° C.
Measurement: • Victor 2; 550 nm • Determination of IC50 was done using XL-fit.

IC50 [1] | melting point | SMILES
7 nM | 152 to 154 °C | Fc1cc(C(F)(F)F)ccc1/C=C/c1nc(COc2ccc(-c3nc(Cn4ccnn4)co3)cc2)co1 [Example 6, 1-[2-(4-{2-[(E)-2-(2-Fluoro-4-trifluoromethyl-phenyl)-vinyl]-oxazol-4-ylmethoxy}-phenyl)-oxazol-4-ylmethyl]-1H-[1,2,3]triazole]
46 nM | 166 to 172 °C | FC(F)(F)Oc1ccc(/C=C/c2nc(COc3ccc(-c4nc(Cn5ccnn5)co4)cc3)co2)cc1 [Example 2, 1-[2-(4-{2-[(E)-2-(4-Trifluoromethoxy-phenyl)-vinyl]-oxazol-4-ylmethoxy}-phenyl) -oxazol-4-ylmethyl]-1H-[1,2,3]triazole]
 | 167 to 169 °C | [O-][S+](c1ccc(/C=C/c2nc(COc3ccc(-c4nc(Cn5ccnn5)co4)cc3)co2)cc1)C(F)(F)F (stereo not shown) [Example 15, 1-[2-(4-{2-[(E)-2-(−4-Trifluoromethylsulfinyl-phenyl)-vinyl]-oxazol-4-ylmethoxy}-phenyl)-oxazol-4-ylmethyl]-1H-[1,2,3]triazole]
 | 178 °C | COc1ccc(/C=C/c2nc(COc3ccc(-c4nc(Cn5ccnn5)co4)cc3)co2)cc1 [Example 1, 1-[2-(4-{2-[(E)-2-(4-Methoxy-phenyl)-vinyl]-oxazol-4-ylmethoxy}-phenyl)-oxazol-4-ylmethyl]-1H-[1,2,3]triazole]
45 nM | 170 °C | FC(F)(F)c1ccc(/C=C/c2nc(COc3ccc(-c4nc(Cn5ccnn5)co4)cc3)co2)cc1 [Example 4, 1-[2-(4-{2-[(E)-2-(4-Trifluoromethyl-phenyl)-vinyl]-oxazol-4-ylmethoxy}-phenyl) -oxazol-4-ylmethyl]-1H-[1,2,3]triazole]
69 nM | 208 to 210 °C | Clc1ccc(/C=C/c2nc(COc3ccc(-c4nc(Cn5ccnn5)co4)cc3)co2)cc1 [Example 5, 1-[2-(4-{2-[(E)-2-(4-Chloro-phenyl)-vinyl]-oxazol-4-ylmethoxy}-phenyl)-oxazol-4-ylmethyl]-1H-[1,2,3]triazole]
37 nM | 163 to 165 °C | FC(F)(F)c1ccc(/C=C/c2nc(COc3ccc(-c4nc(Cn5ccnn5)cs4)cc3)co2)cc1 [Example 7, 1-[2-(4-{2-[(E)-2-(4-Trifluoromethyl-phenyl)-vinyl]-oxazol-4-ylmethoxy}-phenyl) -thiazol-4-ylmethyl]-1H-[1,2,3]triazole]
46 nM | 172 to 173 °C | FC(F)(F)Sc1ccc(/C=C/c2nc(COc3ccc(-c4nc(Cn5ccnn5)co4)cc3)co2)cc1 [Example 3, 1-[2-(4-{2-[(E)-2-(−4-Trifluoromethylsulfanyl-phenyl)-vinyl]-oxazol-4-ylmethoxy}-phenyl)-oxazol-4-ylmethyl]-1H-[1,2,3]triazole]
60 nM | 179 to 181 °C | FC(F)(F)c1ccc(/C=C/c2nc(COc3ccc(-c4nc(Cn5ccnn5)co4)cc3)cs2)cc1 [Example 10, 1-[2-(4-{2-[(E)-2-(4-Trifluoromethyl-phenyl)-vinyl]-thiazol-4-ylmethoxy}-phenyl) -oxazol-4-ylmethyl]-1H-[1,2,3]triazole]

More lines, now with the values behind:

SMILES | IC50 [1] | melting point
Fc1cc(Cl)ccc1/C=C/c1nc(COc2ccc(-c3nc(Cn4ccnc4)co3)cc2)co1 [Example 14, 2-[(E)-2-(2-Fluoro-4-chloro-phenyl)-vinyl]-4-[4-(4-imidazol-1-ylmethyl-oxazol-2-yl)phenoxymethyl]-oxazole] |  | 166 to 167 °C
Fc1cc(Cl)ccc1/C=C/c1nc(COc2ccc(-c3nc(Cn4ccnn4)co3)cc2)co1 [Example 9, 1-[2-(4-{2-[(E)-2-(4-Chloro-2-fluoro-phenyl)-vinyl]-oxazol-4-ylmethoxy}-phenyl)oxazole-4-ylmethyl]-1H-[1,2,3]triazole] | 11 nM | 193 to 194 °C
OCCc1nccn1Cc1coc(-c2ccc(OCc3coc(/C=C/c4ccc(Cl)cc4F)n3)cc2)n1 [Example 18, 2-{1-[2-(4-{2-[(E)-2-(4-Chloro-2-fluoro-phenyl)-vinyl]-oxazol-4-ylmethoxy}-phenyl)-oxazole-4-ylmethyl]-1H-imidazol-2-yl}-ethanol] |  | 170 to 172 °C
Fc1cc(C(F)(F)F)ccc1/C=C/c1nc(COc2ccc(-c3nc(Cn4ccnn4)cs3)cc2)co1 [Example 8, 1-[2-(4-{2-[(E)-2-(2-Fluoro-4-trifluoromethyl-phenyl)-vinyl]-oxazol-4-ylmethoxy}-phenyl)-thiazol-4-ylmethyl]-1H-[1,2,3]triazole] | 70 nM | 180 to 182 °C
FS(F)(F)(F)(F)c1ccc(/C=C/c2nc(COc3ccc(-c4nc(Cn5ccnn5)co4)cc3)co2)cc1 [Example 19, 1-[2-(4-{2-[(E)-2-(4-Pentafluorosulfanyl-phenyl)-vinyl]-oxazol-4-ylmethoxy}-phenyl) -oxazol-4-ylmethyl]-1H-[1,2,3]triazole] |  | 172 to 174 °C
Fc1cc(C(F)(F)F)ccc1/C=C/c1nc(COc2ccc(-c3nc(Cn4ccnc4)co3)cc2)co1 [Example 13, 2-[(E)-2-(2-Fluoro-4-trifluoromethyl-phenyl)-vinyl]-4-[4-(4-imidazol-1-ylmethyl-oxazol-2-yl)-phenoxymethyl]-oxazole] |  | 150 to 153 °C
[O-][S+](c1ccc(/C=C/c2nc(COc3ccc(-c4nc(Cn5ccnc5)co4)cc3)co2)cc1)C(F)(F)F (stereo not shown) [Example 17, 1-[2-(4-{2-[(E)-2-(−4-Trifluoromethylsulfinyl-phenyl)-vinyl]-oxazol-4-ylmethoxy}-phenyl)-oxazol-4-ylmethyl]-1H-imidazole] |  | 134 to 136 °C
Fc1cc(C(F)(F)F)ccc1/C=C/c1nc(COc2ccc(-c3nc(Cn4ccnc4)cs3)cc2)co1 [Example 12, 2-[(E)-2-(2-Fluoro-4-trifluoromethyl-phenyl)-vinyl]-4-[4-(4-imidazol-1-ylmethyl-thiazole-2-yl)-phenoxymethyl]-oxazole] |  | 133 to 135 °C
FC(F)(F)Sc1ccc(/C=C/c2nc(COc3ccc(-c4nc(Cn5ccnc5)co4)cc3)co2)cc1 [Example 16, 1-[2-(4-{2-[(E)-2-(−4-Trifluoromethylsulfanyl-phenyl)-vinyl]-oxazol-4-ylmethoxy}-phenyl)-oxazol-4-ylmethyl]-1H-imidazole] |  | 144 to 145 °C
FC(F)(F)c1ccc(/C=C/c2nc(COc3ccc(-c4nc(Cn5ccnn5)cs4)cc3)cs2)cc1 [Example 11, 1-[2-(4-{2-[(E)-2-(4-Trifluoromethyl-phenyl)-vinyl]-thiazol-4-ylmethoxy}-phenyl) -thiazole-4-ylmethyl]-1H-[1,2,3]triazole] |  | 146 to 148 °C
